≈ marks a conversion by molar mass, not a printed value. Where two headings read alike, the source gives them in different places.
Legend:
K. pneumoniae [1] = assay: Microdilution MIC/MMC with resazurin; format: cell-based, Klebsiella pneumoniae; details: for MIC: Klebsiella pneumoniae
Protocol: (§1) The antimicrobial activity was evaluated against 15 microorganisms. This included 11 bacterial strains: four standard strains (Staphylococcus aureus ATCC 25923, Bacillus subtilis ATCC 6633, Bacillus pumilus NCTC 8241, and Escherichia coli ATCC 25922) and six clinical or environmental isolates (Staphylococcus aureus, Escherichia coli, Bacillus cereus, Proteus mirabilis, Salmonella enterica, and Klebsiella pneumoniae). One probiotic strain, Bifidobacterium animalis subsp. lactis was tested. In addition, four fungal strains, Candida albicans ATCC 10231, Trichoderma viride ATCC 13233, Aspergillus flavus ATCC 9170, and Fusarium solani ATCC 11712 were tested. The bacterial strains were kept in glycerol stock at −80 °C and the fungal strains in paraffin oil stock at 4 °C.
(§2) Bacterial and yeast suspensions were prepared using the direct colony method, as previously described by Andrews. The turbidity of the initial suspensions was adjusted to match the 0.5 McFarland standard using a densitometer (Biosan, Riga, Latvia), corresponding to approximately 10^8 colony-forming units (CFU)/mL for bacterial cells and 10^6 CFU/mL for yeast cells. Subsequently, 1:100 dilutions of the initial suspensions were prepared in sterile 0.85% saline. Fungal spore suspensions were obtained by gently harvesting spores from agar slopes containing mature mycelial growth. The collected spore suspensions were then diluted 1:1000 in sterile 0.85% saline prior to use.
(§3) Antimicrobial activity was evaluated by determining the minimum inhibitory concentration (MIC) and minimum microbicidal concentration (MMC) using the microdilution plate method with resazurin as an indicator [28]. In the 96-well plates, 100 μL of Mueller–Hinton broth (Torlak, Belgrade, Serbia) for bacterial testing and Sabouraud broth (Torlak, Belgrade, Serbia) for fungal testing were dispensed into each well. The compounds under investigation were initially dissolved in a 10% dimethyl sulfoxide (DMSO) solution, followed by dilution in sterile distilled water, resulting in a working compound solution containing 1% DMSO. A 100 μL aliquot of the stock solution of the tested compound was added to the first row, and twofold serial dilutions were then carried out using a multichannel pipette. The resulting concentration range was from 5 to 0.039 mg/mL. The inoculated microtiter plates were incubated at 37 °C for 24 h for bacteria, at 28 °C for 48 h for yeasts, and at 28 °C for 72 h for molds.
(§4) Each test also included growth control and sterility control. All tests were conducted in duplicate. MIC was defined as the lowest concentration of tested compounds that prevented resazurin color change from blue to pink. For molds, MIC values of the tested compound were determined as the lowest concentration that inhibited visible mycelia growth. MMC was determined by inoculation of the nutrient agar medium by plating […] of samples from wells, where no indicator color change was recorded. At the end of the incubation period, the lowest concentration with no growth (no colony) was defined as MMC.
Doxycycline, ampicillin and amphotericin B (- Sigma-Aldrich, St. Louis, MO, USA) and ketoconazole (Hemofarm A.D., Vršac, Serbia) were dissolved in a nutrient liquid medium. Doxycycline is a broad-spectrum antibiotic effective against both aerobic and anaerobic Gram-positive and Gram-negative bacteria. Ampicillin, a beta-lactam antibiotic, primarily targets Gram-positive bacteria but also some Gram-negative strains. Amphotericin B is an antifungal drug often used for serious systemic fungal infections and is one of the effective treatments for fungal infections caused by Aspergillus sp. Ketoconazole is an antifungal agent used to inhibit the growth of Candida species.

B. subtilis ATCC 6633 = assay: Inhibition of biofilm formation (crystal violet); format: cell-based, Bacillus subtilis; details: for BIC50: biofilm coverage reduced by 50%; for BIC90: biofilm coverage reduced by 90%
Protocol: (§5) The procedure involved preparing 96-well microtiter plates (Sarstedt, Nümbrecht, Germany) by adding 100 μL of Mueller-Hinton nutrient broth to each well. A 10 μL aliquot of bacterial suspension (adjusted to 1.0 McFarland for Gram-positive bacteria and 0.5 McFarland for Gram-negative bacteria) was added to the wells. The plates were then incubated at 37 °C for 48 h to allow biofilm formation. After incubation, the wells were washed twice with 200 μL of sterile 0.85% saline to remove non-adherent and weakly adherent cells. Biofilms formed by the adherent bacteria were fixed with 100 μL of methanol until fully evaporated. The biofilms were then stained using 0.1% (w/v) crystal violet (Fluka Chemie AG, Buchs, Switzerland) and left at room temperature for 20 min. After staining, excess dye was washed off with deionized water, followed by 96% ethanol. Controls included wells containing only nutrient broth to check for sterility and nonspecific binding. Background absorbance from the sterile medium, fixative, and dye was subtracted from the OD readings of the test samples. All experiments were performed in triplicate.
(§6) To assess the inhibition of biofilm formation, 96-well microtiter plates (Sarstedt, Nümbrecht, Germany) were prepared by dispensing 100 μL of Mueller-Hinton broth into each well. From stock solutions of tested compounds (at 10 mg/mL), 100 μL was added to the first row of the plate, followed by twofold serial dilutions (from 5 to 0.039 mg/mL) using a multichannel pipette (Eppendorf AG, Hamburg, Germany). Subsequently, 10 μL of fresh bacterial suspension (adjusted to 0.5 McFarland for Gram-negative and 1.0 McFarland for Gram-positive bacteria) was added to each well. The plates were incubated at 37 °C for 48 h. After incubation, the contents of the wells were carefully removed by tapping, and the remainder of the experiment was conducted following the procedure described above.
(§7) Controls consisted of wells containing only broth or broth with the tested compounds to assess sterility and nonspecific binding. Background absorbance was subtracted from test readings as described earlier. All experiments were performed in triplicate, and tetracycline (Sigma-Aldrich, St. Louis, MO, USA), dissolved in nutrient broth, was used as a reference compound.

S. aureus ATCC 25923 = assay: Inhibition of biofilm formation (crystal violet); format: cell-based, Staphylococcus aureus; details: for BIC50: biofilm coverage reduced by 50%; for BIC90: biofilm coverage reduced by 90%
Protocol: as §5, §6, §7

P. mirabilis = assay: Inhibition of biofilm formation (crystal violet); format: cell-based, Proteus mirabilis; details: for BIC50: biofilm coverage reduced by 50%; for BIC90: biofilm coverage reduced by 90%
Protocol: as §5, §6, §7

S. enterica = assay: Inhibition of biofilm formation (crystal violet); format: cell-based, Salmonella enterica; details: for BIC50: biofilm coverage reduced by 50%; for BIC90: biofilm coverage reduced by 90%
Protocol: as §5, §6, §7

K. pneumoniae [2] = assay: Inhibition of biofilm formation (crystal violet); format: cell-based, Klebsiella pneumoniae; details: for BIC50: biofilm coverage reduced by 50%; for BIC90: biofilm coverage reduced by 90%
Protocol: as §5, §6, §7

[3] = ABTS radical scavenging assay; details: mean ± SD
Protocol: The ABTS radical cation solution was prepared following the previously described protocol. Different concentrations of the analyzed samples were prepared in DMSO. The test samples were prepared following the specified procedure: 20 µL of sample was combined with 980 µL of methanol, followed by the addition of 1000 µL of ABTS solution. Absorbance was measured at 734 nm. All measurements were performed in triplicate.

tested bacterial strains = assay: Microdilution MIC, summary over tested bacterial strains; format: cell-based; details: for MIC values, range over bacterial strains: all tested bacteria; for MIC: read-out: MIC against E. coli ATCC 25922 and S. aureus ATCC 25923 (abstract)
Protocol: as §1, §2, §3, §4

[4] = K. pneumoniae, compounds 1–8, read-out: MIC

SMILES	MMC (K. pneumoniae [1]; K. pneumoniae, compounds 1–8) [mg/mL]	MIC (K. pneumoniae [1]; [4]) [µg/mL]	BIC50 (B. subtilis ATCC 6633) [µg/mL]	BIC90 (B. subtilis ATCC 6633) [µg/mL]	BIC50 (S. aureus ATCC 25923) [µg/mL]	BIC90 (S. aureus ATCC 25923) [µg/mL]	BIC50 (P. mirabilis) [µg/mL]	BIC90 (P. mirabilis) [µg/mL]	BIC50 (S. enterica) [µg/mL]	BIC90 (S. enterica) [µg/mL]	BIC50 (K. pneumoniae [2]) [µg/mL]	BIC90 (K. pneumoniae [2]) [µg/mL]	ABTS Scavenging Ability ([3]; 25 µM) [%]	ABTS Scavenging Ability ([3]; 50 µM) [%]	ABTS Scavenging Ability ([3]; 100 µM) [%]	MIC values, range over bacterial strains (tested bacterial strains) [mg/mL]	MIC (tested bacterial strains) [µg/mL]	antibacterial activity (in words) (tested bacterial strains; tested concentrations 5 to 0.039 mg/mL)	MIC (K. pneumoniae [1]) [µg/mL]
S=C1NCC(c2ccccc2)O1 (racemic) [Compound 4, rac-5-Phenyl-1,3-oxazolidine-2-thione]	5	2500 (≈ 13.9 mM)	2700	>5000	1500	>5000	3170	>5000	1000	4470	3978	>5000	0.9 ± 0.1	1.6 ± 0.9	2.5 ± 0.3	1.25 to 5			
CSC(=S)NCCc1ccccc1 [Compound 1, Methyl phenethylcarbamodithioate]	5	5000 (≈ 23.7 mM)											1.7 ± 1.1	2.2 ± 1.2	2.6 ± 0.8	1.25 to 5			
CSC(=S)NCCc1ccc(O)cc1 [Compound 2, methyl-4-hydroxyphenylethyl dithiocarbamate]	0.625	625 (≈ 2.75 mM)	290	1250	220	2120	1158	4500	1100	3200	580	3600	7.6 ± 1.0	13.4± 0.9	13.4 ± 0.8		312 to 1250 (≈ 1.37 to 5.5 mM)		
O=C(O)C1CSC(=S)N1 (centres unmarked) [Compound 3, 2-Thioxothiazolidine-4-carboxylic Acid]	2.5	2500 (≈ 15.3 mM)	1190	2500	2500	>5000	3420	>5000	2400	>5000	1262	>5000	1.2 ± 0.3	1.9 ± 1.2	2.6 ± 0.7				
S=C1NC[C@H](c2ccccc2)O1 [Compound 5, (S)-5-phenyl-1,3-oxazolidine-2-thione]	5	5000 (≈ 27.9 mM)											6.6 ± 0.2	12.3 ± 0.8	19.1 ± 0.6				
O=C1NCC(c2ccccc2)S1 (centres unmarked) [Compound 6, 5-phenyl-1,3-thiazolidin-2-one]	>5	> 5000											2.6 ± 0.7	3.9 ± 1.2	5.1 ± 0.9			no detectable antibacterial activity	
O=C1NCC(c2ccccc2)O1 (centres unmarked) [Compound 7, 5-Phenyl-1,3-oxazolidin-2-one]	2.5	2500 (≈ 15.3 mM)	>5000	>5000	>5000	>5000	3100	4754	1254	>5000	4400	>5000	1.3 ± 0.1	2.7 ± 1.0	3.9 ± 0.4				
Oc1ccc(CCN=C=S)cc1 [Compound 8, 2-(4-hydroxyphenyl)ethyl isothiocyanate]	0.625		1100	2300	868	1360	1428	2400	1547	>5000	570	2000	2.9 ± 1.3	6.8 ± 1.1	11.9 ± 0.8		312 to 1250 (≈ 1.74 to 6.97 mM)		312 (≈ 1.74 mM)
